The source of these data is US20160136120A1, “TRANSDERMAL DELIVERY KITS” (ASCLEMED USA, INC. dba EnovaChem Manufacturing, priority 2013, published 2016).

This data set can be described thus: Stability tests of API mixed with Microderm base, stored in a jar with closed lid (LC-UV assay). It counts as physicochemical. As to conditions: as illustrated in the stability studies. On the procedure: The stability tests were carried out by mixing the API (USP strength) with Microderm™, and placing the resulting composition in ajar with a closed lid.
Column: 4.6-mm×25.0-cm; 5-μm packing L1
Storage condition: 20° C. to 25° C. (68° F. to 77° F.)

`NCC(CC(=O)O)c1ccc(Cl)cc1` (stereo not drawn) [Baclofen, β-(4-chlorophenyl)-γ-aminobutyric acid]: the Susceptibility to degradation result is “particularly susceptible to degradation”.
